Where a name gives a salt, the structure may show the parent alone.
Molecular target: T1, Human P2X7 (hP2X7) receptor (Homo sapiens, UniProt Q99572)
T1 construct: myc-His (from the pcDNA3.1/myc-HisA vector); expressed in transfected cells
T1 sequence (Q99572 1-595): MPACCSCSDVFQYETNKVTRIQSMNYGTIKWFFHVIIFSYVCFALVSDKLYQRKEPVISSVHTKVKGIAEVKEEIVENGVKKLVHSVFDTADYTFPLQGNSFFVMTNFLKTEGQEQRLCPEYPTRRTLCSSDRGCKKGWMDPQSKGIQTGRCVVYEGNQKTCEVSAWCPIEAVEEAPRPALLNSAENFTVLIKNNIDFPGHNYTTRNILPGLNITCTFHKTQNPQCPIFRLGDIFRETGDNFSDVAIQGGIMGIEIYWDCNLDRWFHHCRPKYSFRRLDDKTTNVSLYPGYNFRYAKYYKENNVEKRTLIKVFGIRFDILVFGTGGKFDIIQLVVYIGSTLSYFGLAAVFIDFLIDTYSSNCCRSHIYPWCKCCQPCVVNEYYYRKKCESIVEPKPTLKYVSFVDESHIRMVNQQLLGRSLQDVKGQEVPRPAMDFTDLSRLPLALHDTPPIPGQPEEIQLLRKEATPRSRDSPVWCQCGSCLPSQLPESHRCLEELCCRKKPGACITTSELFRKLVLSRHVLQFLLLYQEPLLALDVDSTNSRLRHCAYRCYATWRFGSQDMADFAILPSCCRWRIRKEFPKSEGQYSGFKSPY
Test: Dye assay: BzATP-induced Yo-Pro-1 uptake in HEK293 cells stably expressing hP2X7
Format: cell-based
Details: BzATP (0.1 mM)-induced Yo-Pro-1 uptake, compounds 30 min pre-treatment, 90 min incubation
Excerpt: Human P2X7 (hP2×7) was cloned from a normal human brain total RNA library by reverse transcription (using SuperScript II (Invitrogen)) and PCR (using KOD-plus-(TOYOBO)). PCR primers were designed according to hP2X7 sequence registered in GENBANK with a putative amino acid sequence consisting of 595 amino acid residues. The PCR fragments were inserted into pcDNA3.1/myc-HisA vector (Invitrogen) and sequenced for confirmation.
HEK293 cells were transfected with hP2×7/pcDNA3.1/myc-HisA by lipofection, and 1 day later, the cells were treated with 1 mg/mL G418, and resistant cells were selected by appropriately dilution. The resistant cells were cloned by reseeding at a low density.
P2X7 receptor antagonists were screened by a dye uptake assay using HEK293 cells stably expressing hP2×7. Cells were plated on a type I collagen-coated black/clear bottom 96-well plate at 20000 cells/well and a day later, treated with varying concentrations of various test compounds for 30 minutes, then treated with a dye (Yo-Pro-1) (final concentration 2 μM) and BzATP (final concentration 0.1 mM) and incubated for 90 minutes. Then, the fluorescence (indicating the BzATP-induced Yo-Pro-1 uptake mediated by the P2X7 receptor) was measured with a microplate reader (excitation wavelength: 485 nm, emission wavelength: 535 nm). The % inhibition rates were calculated and plotted against the logarithms of the concentrations to determine IC50.

Question: How did the IC50 turn out when CC(C(=O)NCc1ccncc1)n1ncc(N[C@@H]2C[C@@H]3C[C@H]([C@H]2C)C3(C)C)c(Br)c1=O (stereo partly drawn) [Synthetic Example 46, 2-{5-Bromo-6-oxo-4-[(1R,2R,3R,5S)-2,6,6-trimethylbicyclo[3.1.1]hept-3-ylamino]pyridazin-1(6H)-yl}-N-(pyridin-4-ylmethyl)propanamide] was run?
Answer: 14 nM

Question: CCOc1nn(CC(=O)c2ccc(N(CC)CC)cc2)c(=O)c(Cl)c1N[C@@H]1C[C@@H]2C[C@H]([C@H]1C)C2(C)C [Synthetic Example 140] was tested. Which IC50 did it give?
Answer: 15 nM

Question: With CSc1c(N[C@@H]2C[C@@H]3C[C@H]([C@H]2C)C3(C)C)cnn(CC(=O)NCc2ccncc2)c1=O [Synthetic Example 146] as the compound, how does the IC50 read?
Answer: 70 nM

Question: For Cc1c(N[C@@H]2C[C@@H]3C[C@H]([C@H]2C)C3(C)C)cnn(CC(=O)NCc2ccncc2)c1=O [Synthetic Example 154, 2-{5-Methyl-6-oxo-4-[(1R,2R,3R,5S)-2,6,6-trimethylbicyclo[3.1.1]hept-3-ylamino]pyridazin-1(6H)-yl}-N-(pyridin-4-ylmethyl)acetamide], which IC50 is on record?
Answer: 22 nM

Question: With C[C@@H]1[C@H]2C[C@@H](C[C@H]1Nc1cnn(CC(=S)NCc3ccncc3)c(=O)c1Br)C2(C)C [Synthetic Example 156, 2-{5-Bromo-6-oxo-4-[(1R,2R,3R,5S)-2,6,6-trimethylbicyclo[3.1.1]hept-3-ylamino]pyridazin-1(6H)-yl}-N-(pyridin-4-ylmethyl)ethanethioamide] as the compound, how does the IC50 read?
Answer: 24 nM

Question: With C[C@@H]1[C@H]2C[C@@H](C[C@H]1Nc1cnn(CC(=O)NCc3cc[n+]([O-])cc3)c(=O)c1Br)C2(C)C [Synthetic Example 158, 4-[(2-{5-Bromo-6-oxo-4-[(1R,2R,3R,5S)-2,6,6-trimethylbicyclo[3.1.1]hept-3-ylamino]pyridazin-1(6H)-yl}acetamido)methyl]pyridine 1-oxide] as the compound, how does the IC50 read?
Answer: 45 nM

Question: With CCN(CC)c1ccc(C(Cn2ncc(N[C@@H]3C[C@@H]4C[C@H]([C@H]3C)C4(C)C)c(Br)c2=O)=NOC)cc1 [Synthetic Example 159, 4-Bromo-2-{2-[4-(diethylamino)phenyl]-2-(methoxyimino)ethyl}-5-[(1R,2R,3R,5S)-2,6,6-trimethylbicyclo[3.1.1]hept-3-ylamino]pyridazin-3(2H)-one] as the compound, how does the IC50 read?
Answer: 77 nM

Question: C[C@@H]1[C@H]2C[C@@H](C[C@H]1Nc1cnn(-c3cccc(C(=O)NCc4ccncc4)c3)c(=O)c1Br)C2(C)C [Synthetic Example 162, 3-{5-Bromo-6-oxo-4-[(1R,2R,3R,5S)-2,6,6-trimethylbicyclo[3.1.1]hept-3-ylamino]pyridazin-1(6H)-yl}-N-(pyridin-4-ylmethyl)benzamide] was tested. Which IC50 did it give?
Answer: 51 nM

Question: For C[C@@H]1[C@H]2C[C@@H](C[C@H]1Nc1cnn(CC(=O)NCc3ccncc3)c(=O)c1-c1ccncc1)C2(C)C [Synthetic Example 379, 2-[6-Oxo-5-(pyridin-4-yl)-4-{[(1R,2R,3R,5S)-2,6,6-trimethylbicyclo[3.1.1]hept-3-yl]amino}pyridazin-1(6H)-yl]-N-(pyridin-4-ylmethyl)acetamide], which IC50 is on record?
Answer: 240 nM

Question: How did the IC50 turn out when CCC(NC(=O)Cn1ncc(NC2C[C@@H]3CC([C@H]2C)C3(C)C)c(OC(F)F)c1=O)c1ccncc1 (some centres unmarked) [Synthetic Example 382] was run?
Answer: 25 nM

Question: With CCC(NC(=O)Cn1ncc(NC2C[C@@H]3CC([C@H]2C)C3(C)C)c(OC)c1=O)c1ccncc1 (some centres unmarked) [Synthetic Example 385] as the compound, how does the IC50 read?
Answer: 39 nM

Question: With C[C@@H]1[C@H]2C[C@@H](C[C@H]1Nc1cnn(CC(=O)NCc3ccncc3)c(=O)c1C#N)C2(C)C [Synthetic Example 387, 2-[5-Cyano-6-oxo-4-{[(1R,2R,3R,5S)-2,6,6-trimethylbicyclo[3.1.1]hept-3-yl]amino}pyridazin-1(6H)-yl]-N-(pyridin-4-ylmethyl)acetamide] as the compound, how does the IC50 read?
Answer: 37 nM

Question: Which IC50 does the source give for C[C@@H]1[C@H]2C[C@@H](C[C@H]1Nc1c(O)nn(CC(=O)NCc3ccncc3)c(=O)c1Cl)C2(C)C [Synthetic Example 390, 2-[5-Chloro-3-hydroxy-6-oxo-4-{[(1R,2R,3R,5S)-2,6,6-trimethylbicyclo[3.1.1]hept-3-yl]amino}pyridazin-1(6H)-yl]-N-(pyridin-4-ylmethyl)acetamide Hydrochloride] here?
Answer: 270 nM

Question: Which IC50 does the source give for C[C@@H]1[C@H]2C[C@@H](C[C@H]1Nc1cnn(Cc3ccncc3)c(=O)c1Br)C2(C)C [Synthetic Example 394, 4-Bromo-2-(pyridin-4-ylmethyl)-5-{[(1R,2R,3R,5S)-2,6,6-trimethylbicyclo[3.1.1]hept-3-yl]amino}pyridazin-3(2H)-one] here?
Answer: 220 nM

Question: CCC(NC(=O)Cn1ncc(N[C@@H]2C[C@@H]3C[C@H]([C@H]2C)C3(C)C)c(Cl)c1=O)C(N)=O (stereo partly drawn) [Synthetic Example 402, 2-({[5-Chloro-6-oxo-4-{[(1R,2R,3R,5S)-2,6,6-trimethylbicyclo[3.1.1]hept-3-yl]amino}pyridazin-1(6H)-yl]acetyl}amino)butanamide] was tested. Which IC50 did it give?
Answer: 120 nM

Question: For C[C@@H]1[C@H]2C[C@@H](C[C@H]1Nc1cnn(CC(=O)NC(C(=O)O)c3ccccc3)c(=O)c1Br)C2(C)C (stereo partly drawn) [Synthetic Example 403, ({[5-Bromo-6-oxo-4-{[(1R,2R,3R,5S)-2,6,6-trimethylbicyclo[3.1.1]hept-3-yl]amino}pyridazin-1(6H)-yl]acetyl}amino)(phenyl)acetic Acid], which IC50 is on record?
Answer: 74 nM

Question: For C[C@@H]1[C@H]2C[C@@H](C[C@H]1Nc1cnn(CC(=O)NC(C(N)=O)c3ccccc3)c(=O)c1Br)C2(C)C (stereo partly drawn) [Synthetic Example 404, N-(2-Amino-2-oxo-1-phenylethyl)-2-[5-bromo-6-oxo-4-{[(1R,2R,3R,5S)-2,6,6-trimethylbicyclo[3.1.1]hept-3-yl]amino}pyridazin-1(6H)-yl]acetamide], which IC50 is on record?
Answer: 47 nM

Question: With C[C@@H]1[C@H]2C[C@@H](C[C@H]1Nc1cnn(C(F)C(=O)NCc3ccncc3)c(=O)c1Br)C2(C)C (stereo partly drawn) [Synthetic Example 405, [5-Bromo-6-oxo-4-{[(1R,2R,3R,5S)-2,6,6-trimethylbicyclo[3.1.1]hept-3-yl]amino}pyridazin-1(6H)-yl]-2-fluoro-N-(pyridin-4-ylmethyl)acetamide] as the compound, how does the IC50 read?
Answer: 21 nM

Question: How did the IC50 turn out when C[C@@H]1[C@H]2C[C@@H](C[C@H]1Nc1cnn(CC(=O)NCc3ccncc3)c(=O)c1C(=O)O)C2(C)C [Synthetic Example 406, 3-Oxo-2-{2-oxo-2-[(pyridin-4-ylmethyl)amino]ethyl}-5-{[(1R,2R,3R,5S)-2,6,6-trimethylbicyclo[3.1.1]hept-3-yl]amino}-2,3-dihydropyridazine-4-carboxylic Acid] was run?
Answer: 40 nM

Question: How did the IC50 turn out when C[C@@H]1[C@H]2C[C@@H](C[C@H]1Nc1cnn(-c3cccc(C(=O)NCC4(O)CCCCCC4)c3)c(=O)c1Br)C2(C)C [Synthetic Example 409, 3-[5-Bromo-6-oxo-4-{[(1R,2R,3R,5S)-2,6,6-trimethylbicyclo[3.1.1]hept-3-yl]amino}pyridazin-1(6H)-yl]-N-[(1-hydroxycycloheptyl)methyl]benzamide] was run?
Answer: 71 nM

Question: With C[C@@H]1[C@H]2C[C@@H](C[C@H]1Nc1cnn(CC(=O)NCc3ccncc3OCC#N)c(=O)c1Cl)C2(C)C [Synthetic Example 415] as the compound, how does the IC50 read?
Answer: 39 nM

Question: For C[C@@H]1[C@H]2C[C@@H](C[C@H]1Nc1cnn(C3(C(=O)NCc4ccncc4)CCC3)c(=O)c1Br)C2(C)C [Synthetic Example 420, 1-[5-Bromo-6-oxo-4-{[(1R,2R,3R,5S)-2,6,6-trimethylbicyclo[3.1.1]hept-3-yl]amino}pyridazin-1(6H)-yl]-N-(pyridin-4-ylmethyl)cyclobutanecarboxamide], which IC50 is on record?
Answer: 120 nM

Question: With C[C@@H]1[C@H]2C[C@@H](C[C@H]1Nc1cnn(CC(=O)NC(CC(N)=O)c3ccncc3)c(=O)c1Br)C2(C)C (stereo partly drawn) [Synthetic Example 428, 3-({[5-Bromo-6-oxo-4-{[(1R,2R,3R,5S)-2,6,6-trimethylbicyclo[3.1.1]hept-3-yl]amino}pyridazin-1(6H)-yl]acetyl}amino)-3-(pyridin-4-yl)propanamide] as the compound, how does the IC50 read?
Answer: 27 nM

Question: Which IC50 does the source give for O=C(Cn1ncc(SC23CC4CC(CC(C4)C2)C3)c(Br)c1=O)NCc1ccncc1 [Synthetic Example 430, 2-[5-Bromo-6-oxo-4-(tricyclo[3.3.1.1^3,7]dec-1-ylsulfanyl)pyridazin-1-(6H)-yl]-N-(pyridin-4-ylmethyl)acetamide] here?
Answer: 58 nM

Question: How did the IC50 turn out when CC(C)NC(=O)Cn1ncc(N[C@@H]2C[C@@H]3C[C@H]([C@H]2C)C3(C)C)c(Br)c1=O [compound 2] was run?
Answer: 51 nM

Question: With C[C@@H]1[C@H]2C[C@@H](C[C@H]1Nc1cnn(CC(=O)NCCc3ccccc3)c(=O)c1Br)C2(C)C [compound 6] as the compound, how does the IC50 read?
Answer: 86 nM

From US8440666B2, “Pyridazinone compounds and P2X7 receptor inhibitors” (Nissan Chemical Industries, Ltd., priority 2007, dated 2013)
